The values below come from patent US10981932B2, “Macrocyclic indole derivatives” (Bayer Aktiengesellschaft, priority 2016, dated 2021).

The target of series [1] is MCL-1 (Homo sapiens, UniProt Q07820). The experiment in a line: Protein-protein interaction assay MCL-1/Noxa BH3 peptide (MCL-1 assay), TR-FRET. The format is binding. Conditions: MBP-MCL-1 / Noxa BH3-derived peptide, median. An outline of the steps: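 TR-FRET, 665/622 nm emission ratio (excitation 330–350 nm), measured MCL-1/Noxa complex formation. 1 nM MBP-MCL-1, 50 mM Tris/HCl pH 7, 0.1% BGG, 2 mM DTT. Incubation 1 h at 22 °C, then overnight at 4 °C. IC50 by 4-parameter regression, normalized to DMSO (0%) and no-MCL-1 (100%) controls.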

Series [2] deals with SUDHL5. The experiment in a line: Induction of caspase-3/7 activity (Caspase-Glo 3/7), SUDHL5. Conditions: caspase-3/7 induction, SUDHL5 cells, 3 h treatment, median. It is filed as cell-based. The procedure, abridged:
(§1)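 DLBCL cells treated with compounds for 3 h at 37 °C, then caspase-3/7 activity read by Caspase-Glo 3/7 luminescence. Medium-only background subtracted; EC50 fitted with C0 fixed at 1 and top set to the reference compound's maximal induction.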

The subject of series [3] is SUDHL10. Nature of the series: Induction of caspase-3/7 activity (Caspase-Glo 3/7), SUDHL10. It is filed as cell-based. Conditions: caspase-3/7 induction, SUDHL10 cells, 3 h treatment, median. The procedure, abridged: as §1
In series [4] the test system is SUDHL5. Nature of the series: Anti-proliferative effect (CellTiter-Glo, 72 h), SUDHL5. It is filed as cell-based. Conditions: SUDHL5 cells, antiproliferation, 72 h incubation, median, read-out: Antiproli SUDHL5 [M] (median). The procedure, abridged:
(§2)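 Cells were treated with compounds for 72 h at 37 °C in a humidified incubator, and viability was measured by CellTiter-Glo luminescence. A parallel day 0 plate, read the same way, gave the time zero baseline.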

For series [5], the system named is SUDHL10. Nature of the series: Anti-proliferative effect (CellTiter-Glo, 72 h), SUDHL10. It is filed as cell-based. Conditions: SUDHL10 cells, antiproliferation, 72 h incubation, median, read-out: Antiproli SUDHL10 [M] (median). The procedure, abridged: as §2
The test system of series [6] is OPM2. Nature of the series: Anti-proliferative effect (CellTiter-Glo, 72 h), OPM2. It is filed as cell-based. Conditions: OPM2 cells, median, read-out: IC50 antiproliferation assay OPM2 [M] (median). The procedure, abridged: as §2
The test system of series [7] is A2780. The experiment in a line: Anti-proliferative effect (CellTiter-Glo, 72 h), A2780. The format is cell-based. Conditions: A2780 cells, median, read-out: IC50 antiproliferation assay A2780 [M] (median). An outline of the steps:
as §2

The subject of series [8] is MV-4-11. The experiment in a line: Anti-proliferative effect (CellTiter-Glo, 72 h), MV-4-11. It is filed as cell-based. Conditions: MV-4-11 cells, median, read-out: IC50 antiproliferation assay MV-4-11 [M] (median). An outline of the steps:
as §2

The subject of series [9] is SUDHL5. The experiment in a line: Induction of cytotoxicity (CellTiter-Glo, 5 h), SUDHL5.
Series [10] has as its system SUDHL10. The experiment in a line: Induction of cytotoxicity (CellTiter-Glo, 5 h), SUDHL10.
[11] abbreviates: Homo sapiens, SU-DHL-5, 5 h, read-out: Cytotox SUDHL5 [M] (median), SUDHL5 cells, cytotoxicity induction, CellTiter-Glo, 5 h incubation, median.
The mark [12] stands for this setting: Homo sapiens, SU-DHL10, 5 h, read-out: Cytotox SUDHL10 [M] (median), SUDHL10 cells, cytotoxicity induction, CellTiter-Glo, 5 h incubation, median.
Where [13] appears, read: read-out: Cytotox SUDHL5 [M] (median), SUDHL5 cells, cytotoxicity induction, CellTiter-Glo, 5 h incubation, median.
Where [14] appears, read: read-out: Cytotox SUDHL10 [M] (median), SUDHL10 cells, cytotoxicity induction, CellTiter-Glo, 5 h incubation, median.

Where a name gives a salt, the structure may show the parent alone. Read-outs that look alike come from different tables or passages of the source.

Sequence of MCL-1 (Q07820 whole entry): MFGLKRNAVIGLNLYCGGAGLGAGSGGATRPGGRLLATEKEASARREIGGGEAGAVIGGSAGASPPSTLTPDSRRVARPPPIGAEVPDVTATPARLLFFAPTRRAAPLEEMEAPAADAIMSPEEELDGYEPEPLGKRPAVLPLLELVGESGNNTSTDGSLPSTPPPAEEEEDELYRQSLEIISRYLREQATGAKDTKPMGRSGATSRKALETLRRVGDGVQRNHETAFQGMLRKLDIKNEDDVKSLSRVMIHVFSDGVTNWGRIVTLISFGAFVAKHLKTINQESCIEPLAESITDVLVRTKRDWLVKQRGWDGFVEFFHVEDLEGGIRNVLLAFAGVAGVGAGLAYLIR

As to `Cn1nc(COc2ccc(N3CCN(S(C)(=O)=O)CC3)cc2)c2c1COCCCCn1c(C(=O)O)c(CCCOc3cccc4ccccc34)c3cccc-2c31` (racemic) [Example 1-8, (rac)-1-methyl-3-({4-[4-(methylsulfonyl)piperazin-1-yl]phenoxy}methyl)-7-[3-(naphthalen-1-yloxy)propyl]-1,10,11,12,13,15-hexahydropyrazolo[4′,3′:9,10][1,6]oxazacycloundecino[8,7,6-hi]indole-8-carboxylic Acid], the IC50 in series [1] is 0.00187 µM; in [4] (Homo sapiens, SU-DHL-5, 72 h), 9.83e-07 M; in series [5] (Homo sapiens, SU-DHL10, 72 h), 1.44e-06 M; in [6] (Homo sapiens, OPM-2, 72 h), 1.24e-06 M; in [7] (Homo sapiens, A2780, 72 h) it was 6.31e-06 M; in series [8] (Homo sapiens, MV4-11, 72 h), 3.57e-06 M. The IC50 in series [9] (setting [11]) was 8.33e-07 M; in series [10] (setting [12]) it was 1.07e-06 M. Moreover, the EC50 in [2] (Homo sapiens, SU-DHL-5, 3 h) is 0.579 µM; in series [3] (Homo sapiens, SU-DHL10, 3 h), 0.953 µM.
As for `Cn1nc(COc2ccc(N3CCN(S(=O)(=O)C4CC4)CC3)cc2)c2c1COCCCCn1c(C(=O)O)c(CCCOc3cccc4ccccc34)c3cccc-2c31` (racemic) [Example 1-11, (rac)-3-({4-[4-(cyclopropylsulfonyl)piperazin-1-yl]phenoxy}methyl)-1-methyl-7-[3-(naphthalen-1-yloxy)propyl]-110,11,12,13,15-hexahydropyrazolo[4′,3′:9,10][1,6]oxazacycloundecino[8,7,6-hi]indole-8-carboxylic Acid], the IC50 in series [1] came out at 0.00175 µM; in series [4] (Homo sapiens, SU-DHL-5, 72 h), 7.61e-07 M; in series [5] (Homo sapiens, SU-DHL10, 72 h) it was 9.28e-07 M; in [6] (Homo sapiens, OPM-2, 72 h) it was 1.51e-06 M; in [7] (Homo sapiens, A2780, 72 h) it was 4.31e-06 M; in series [8] (Homo sapiens, MV4-11, 72 h), 2.44e-06 M. In addition, the IC50 in series [9] (setting [11]) is 8.89e-07 M; in series [10] (setting [12]), 1.03e-06 M. Further, the EC50 in series [2] (Homo sapiens, SU-DHL-5, 3 h) came out at 0.405 µM; in series [3] (Homo sapiens, SU-DHL10, 3 h), 0.652 µM.
Turning to `Cc1ccc2c(CCCOc3cccc4ccccc34)c(C(=O)O)n3c2c1-c1c(C)nn(C)c1COCCCC3` (racemic) [Example 027, (rac)-1,3,4-trimethyl-7-[3-(naphthalen-1-yloxy)propyl]-1,10,11,12,13,15-hexahydropyrazolo[4′,3′:9,10][1,6]oxazacycloundecino[8,7,6-hi]indole-8-carboxylic Acid], the IC50 in series [1] was 0.00527 µM; in series [4] (Homo sapiens, SU-DHL-5, 72 h) it was 9.27e-06 M; in [5] (Homo sapiens, SU-DHL10, 72 h), 7.34e-06 M; in series [6] (Homo sapiens, OPM-2, 72 h), more than 3.3e-05 M; in series [7] (Homo sapiens, A2780, 72 h), 2.54e-05 M; in series [8] (Homo sapiens, MV4-11, 72 h) it was 2.98e-05 M. Besides, the figures for the IC50 in [9] (setting [11]) and in series [10] (setting [12]) were 8.54e-06 M and 2.59e-05 M, respectively. The EC50 in series [2] (Homo sapiens, SU-DHL-5, 3 h) amounted to 6.7 µM; in series [3] (Homo sapiens, SU-DHL10, 3 h), 20.4 µM.
As for `CCc1c2c(nn1C)COCCCCn1c(C(=O)O)c(CCCOc3cccc4ccccc34)c3cccc-2c31` (racemic) [Example 147, (rac)-3-Ethyl-2-methyl-7-[3-(1-naphthyloxy)propyl]-2,10,11,12,13,15-hexahydropyrazolo[4′,3′:9,10][1,6]oxazacycloundecino[8,7,6-hi]indole-8-carboxylic Acid], the IC50 came to 0.00377 µM in [1]; 3.06e-06 M in series [4] (Homo sapiens, SU-DHL-5, 72 h); 3.93e-06 M in series [5] (Homo sapiens, SU-DHL10, 72 h); 1.05e-05 M in series [6] (Homo sapiens, OPM-2, 72 h); 2.44e-05 M in series [7] (Homo sapiens, A2780, 72 h); 1.37e-05 M in series [8] (Homo sapiens, MV4-11, 72 h). The IC50 in [9] (setting [11]) is 2.8e-06 M; in series [10] (setting [12]), 9.53e-06 M. Besides, the EC50 in series [2] (Homo sapiens, SU-DHL-5, 3 h) came out at 2.26 µM; in [3] (Homo sapiens, SU-DHL10, 3 h), 7.48 µM.
Regarding `CN1CCCn2c(C(=O)O)c(CCCOc3cccc4ccccc34)c3cccc(c32)-c2c(COc3ccc(S(C)(=O)=O)cc3)nn(C)c2C1` (single isomer, unassigned) [Example 1-49, (−)-7,9-dimethyl-11-{[4-(methylsulfonyl)phenoxy]methyl}-1-[3-(naphthalen-1-yloxy)propyl]-4,5,6,7,8,9-hexahydropyrazolo[3′,4′:7,8][1,5]diazecino[9,10,1-hi]indole-2-carboxylic Acid], the IC50 was 0.0542 µM in series [1]; 1.22e-05 M in [4]; 9.58e-06 M in series [5] (Homo sapiens, SU-DHL10, 72 h); more than 3.3e-05 M in series [6]; 2.31e-05 M in series [7] (Homo sapiens, A2780, 72 h); 1.21e-05 M in series [8] (Homo sapiens, MV4-11, 72 h). The IC50 in series [9] (setting [13]) was found to be 3.3e-05 M; in [10] (setting [12]), 2.5e-05 M. In addition, the values for the EC50 in [2] and in [3] were 20.4 µM and 18.8 µM, respectively.
Turning to `CN1CCCn2c(C(=O)O)c(CCCOc3cccc4ccccc34)c3cccc(c32)-c2c(COc3ccc(S(C)(=O)=O)cc3)nn(C)c2C1` (single isomer, unassigned) [Example 1-50], the IC50 in series [1] is 0.0167 µM; in [4], 5.52e-06 M; in series [5], 9.59e-06 M; in series [6] it was 1.21e-05 M; in series [7], 1.83e-05 M; in series [8], 1.05e-05 M. In addition, the IC50 turned out to be 5.74e-06 M in series [9] (setting [13]) and 1.26e-05 M in series [10] (setting [14]). Besides, the EC50 in [2] stood at 6.14 µM; in [3] it was 6.71 µM.
Take `Cn1nc(COc2ccc(S(C)(=O)=O)cc2)c2c1COCC=CCn1c(C(=O)O)c(CCCOc3cccc4ccccc34)c3cccc-2c31` (single isomer, unassigned) [Example 1-52, (E/Z)-1-methy-3-{[4-(methylsulfonyl)phenoxy]methyl}-7-[3-(naphthalen-1-yloxy)propyl]-1,10,13,15-tetrahydropyrazolo[4′,3′:9,10][1,6]oxazacycloundecino[8,7,6-hi]indole-8-carboxylic Acid]: the IC50 in series [1] was found to be 0.281 µM; in series [4] (Homo sapiens, SU-DHL-5, 72 h), 1.25e-05 M; in [5] (Homo sapiens, SU-DHL10, 72 h), 7.55e-06 M; in series [6] (Homo sapiens, OPM-2, 72 h), 3.2e-05 M; in series [7] (Homo sapiens, A2780, 72 h), 2.26e-05 M; in series [8] (Homo sapiens, MV4-11, 72 h), 7.75e-06 M. For the same compound, the IC50 in series [9] (setting [13]) was determined as 3.15e-05 M; in [10] (setting [14]) it was 2.71e-05 M. Besides, the EC50 in series [2] is 31 µM; in [3] it was more than 33 µM.
With `COc1ccccc1-c1ncc(OCc2nn(C)c3c2-c2cccc4c(CCCOc5cccc6ccccc56)c(C(=O)O)n(c24)CCCN(C)C3)cn1` (single isomer, unassigned) [Example 1-91, 11-({[2-(2-methoxyphenyl)pyrimidin-5-yl]oxy}methyl)-7,9-dimethyl-1-[3-(naphthalen-1-yloxy)propyl]-4,5,6,7,8,9-hexahydropyrazolo[3′,4′:7,8][1,5]diazecino[9,10,1-hi]indole-2-carboxylic acid-N-ethylethanamine Salt], the IC50 in series [1] stood at 0.0102 µM; in [4] (Homo sapiens, SU-DHL-5, 72 h), 2.48e-06 M; in series [5] (Homo sapiens, SU-DHL10, 72 h), 4.3e-06 M; in [6] (Homo sapiens, OPM-2, 72 h), 8.37e-06 M; in [7] (Homo sapiens, A2780, 72 h), 7.55e-06 M; in series [8] (Homo sapiens, MV4-11, 72 h) it was 2.62e-06 M. The IC50 in [9] (setting [13]) amounted to 5.99e-06 M; in series [10] (setting [12]), 9.23e-06 M. Moreover, the 50% effective concentration (EC50) in series [2] (Homo sapiens, SU-DHL-5, 3 h) was found to be 6.34 µM; in [3] (Homo sapiens, SU-DHL10, 3 h), 7.32 µM.
In the case of `COc1ccccc1-c1ncc(OCc2nn(C)c3c2-c2cccc4c(CCCOc5cccc6ccccc56)c(C(=O)O)n(c24)CCCN(C)C3)cn1` (single isomer, unassigned) [Example 1-92, 11-({[2-(2-methoxyphenyl)pyrimidin-5-yl]oxy}methyl)-7,9-dimethyl-1-[3-(naphthalen-1-yloxy)propyl]-4,5,6,7,8,9-hexahydropyrazolo[3′,4′:7,8][1,5]diazecino[9,10,1-hi]indole-2-carboxylic acid-N-ethylethanamine Salt], the IC50 was determined as 0.0068 µM in series [1]; 3.21e-06 M in series [4]; 3.83e-06 M in series [5]; 9.6e-06 M in [6]; 6.23e-06 M in series [7]; 1.57e-06 M in series [8]. Further, the IC50 in series [9] (setting [13]) was found to be 2.9e-06 M; in [10] (setting [14]), 5.77e-06 M. Moreover, the EC50 is 3.88 µM in series [2] and 4.47 µM in series [3].
